# Biological target: PARP (Homo sapiens (Human), UniProt P09874)
# Assay: PARP assay (chemiluminescent PARP assay kit, Trevigen)
# Type: biochemical
# Conditions: 1 uM; Table 12; read-out: PARP % inhib @ 1 uM
# Method: Modulatory activity of compounds described herein was assessed in vitro in cell-free CK2 assays. Modulatory activity of compounds described herein also are assessed in vitro in cell-free PARP assays. These assays are described hereafter.
# PARP assays are conducted using a chemiluminescent PARP assay kit (Trevigen). Briefly, reactions are performed in Histone-coated strip wells, by adding 10 microliters test compound dissolved in 1×PARP Buffer (prepared by mixing 20×PARP buffer diluted with high-purity water) and 15 microliters diluted PARP-HSA enzyme (diluted in 1× PARP buffer, 0.1 unit per well) to 25 microliters PARP cocktail (prepared from 10×PARP cocktail and 10× activated DNA, both 2.5 microliters per well and 20 microliters per well of 1×PARP buffer). The reactions are incubated at ambient temperature for 60 minutes, then the liquid was removed. After washing the wells four times with PBS (200 ul), 50 microliters of STREP-HRP (Horseradish Peroxidase) solution (diluted 500-fold in 1× Strep-Diluent) was added and the reactions were allowed to incubate for 30 minutes at ambient temperature. The liquid was removed and, after washing the wells four times with PBS (200 ul), 50 microliters each of PeroxyGlo A and B (Chemiluminescent Horseradish Peroxidase substrates) are added and the resulting chemiluminescence quantified on the SpectraMax M5 plate reader.
# Chain of PARP (P09874 whole entry): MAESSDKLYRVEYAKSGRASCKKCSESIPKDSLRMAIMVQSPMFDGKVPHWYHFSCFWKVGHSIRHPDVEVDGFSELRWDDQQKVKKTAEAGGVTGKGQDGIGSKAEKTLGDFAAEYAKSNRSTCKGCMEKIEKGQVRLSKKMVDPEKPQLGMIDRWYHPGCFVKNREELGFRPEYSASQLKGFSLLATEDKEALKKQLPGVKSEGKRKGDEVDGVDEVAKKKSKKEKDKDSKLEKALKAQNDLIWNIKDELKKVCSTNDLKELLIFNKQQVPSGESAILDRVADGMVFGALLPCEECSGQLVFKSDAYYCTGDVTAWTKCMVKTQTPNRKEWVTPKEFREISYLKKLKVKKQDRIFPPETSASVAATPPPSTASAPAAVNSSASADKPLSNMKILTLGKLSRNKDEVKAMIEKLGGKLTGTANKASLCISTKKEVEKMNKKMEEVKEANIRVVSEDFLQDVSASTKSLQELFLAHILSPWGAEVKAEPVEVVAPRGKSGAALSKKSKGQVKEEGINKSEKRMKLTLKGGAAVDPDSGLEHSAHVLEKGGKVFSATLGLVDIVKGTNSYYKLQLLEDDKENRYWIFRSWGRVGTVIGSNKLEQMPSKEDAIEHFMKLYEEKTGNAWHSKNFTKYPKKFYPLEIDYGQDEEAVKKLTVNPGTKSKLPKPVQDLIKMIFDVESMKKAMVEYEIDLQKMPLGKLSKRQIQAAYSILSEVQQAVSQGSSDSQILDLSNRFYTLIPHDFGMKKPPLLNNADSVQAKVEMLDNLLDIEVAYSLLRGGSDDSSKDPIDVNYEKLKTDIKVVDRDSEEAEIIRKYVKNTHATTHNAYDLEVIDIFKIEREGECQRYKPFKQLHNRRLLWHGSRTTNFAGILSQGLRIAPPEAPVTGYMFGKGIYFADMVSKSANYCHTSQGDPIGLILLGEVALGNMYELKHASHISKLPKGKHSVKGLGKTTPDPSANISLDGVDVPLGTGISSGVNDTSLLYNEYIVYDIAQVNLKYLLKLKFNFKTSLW
row,inhibition at 1 µM [%],SMILES
1,27,COc1ccccc1CNC(=O)c1ccc2c(c1)[nH]c(=O)c1ccsc12
2,31,O=C(O)CNC(=O)c1ccc2c(c1)[nH]c(=O)c1ccsc12
3,36,O=C(NCc1ccccc1)c1ccc2c(c1)[nH]c(=O)c1ccsc12
4,49,CC(C)(C)OC(=O)NC1CCN(C(=O)c2ccc3c(c2)[nH]c(=O)c2ccsc23)CC1
5,40,CC(C)(C)OC(=O)CCNC(=O)c1ccc2c(c1)[nH]c(=O)c1ccsc12
6,29,O=C(Nc1ccc(CN2CCS(=O)(=O)CC2)cc1)c1ccc2c(c1)[nH]c(=O)c1ccsc12
7,71,O=C(NCc1ccccn1)c1ccc2c(c1)[nH]c(=O)c1ccsc12
8,69,O=C(NC1CC1)c1ccc2c(c1)[nH]c(=O)c1ccsc12
9,47,COC(=O)CNC(=O)c1ccc2c(c1)[nH]c(=O)c1ccsc12
10,0,O=C(Nc1ccccc1)c1ccc2c(c1)[nH]c(=O)c1ccsc12
11,0,COc1ccc(NC(=O)c2ccc3c(c2)[nH]c(=O)c2ccsc23)c(OC)c1
12,67,Cc1cc(CNC(=O)c2ccc3c(c2)[nH]c(=O)c2ccsc23)no1
13,96,O=C(c1ccc2c(c1)[nH]c(=O)c1ccsc12)N1CCNCC1
14,55,O=C(NCCc1ccccn1)c1ccc2c(c1)[nH]c(=O)c1ccsc12
15,71,CC(=O)N1CCN(C(=O)c2ccc3c(c2)[nH]c(=O)c2ccsc23)CC1
16,82,O=C(c1ccc2c(c1)[nH]c(=O)c1ccsc12)N1CCOCC1
17,0,COc1ccccc1NC(=O)c1ccc2c(c1)[nH]c(=O)c1ccsc12
18,83,O=C(NCCc1cnc[nH]1)c1ccc2c(c1)[nH]c(=O)c1ccsc12
19,24,COC(=O)c1ccccc1NC(=O)c1ccc2c(c1)[nH]c(=O)c1ccsc12
20,0,O=C(Nc1nccs1)c1ccc2c(c1)[nH]c(=O)c1ccsc12
21,45,COc1ccc(CNC(=O)c2ccc3c(c2)[nH]c(=O)c2ccsc23)cc1
22,72,CC(C)(C)OC(=O)N1CCN(C(=O)c2ccc3c(c2)[nH]c(=O)c2ccsc23)CC1
23,77,O=C(NCCN1CCOCC1)c1ccc2c(c1)[nH]c(=O)c1ccsc12
24,40,COC(=O)c1ccc2c3sccc3c(=O)n(CCCO)c2c1
25,51,N#Cc1ccc2c(c1)[nH]c(=O)c1ccsc12
26,27,COC(=O)c1ccc2c(c1)[nH]c(=O)c1ccsc12
27,96,NC1CCN(C(=O)c2ccc3c(c2)[nH]c(=O)c2ccsc23)CC1
28,74,O=c1[nH]c2cc(CO)ccc2c2sccc12

row,SMILES,inhibition at 1 µM [%]
1,O=c1[nH]c2cc(-c3nn[nH]n3)ccc2c2sccc12,39
2,CN(C)CCn1c(=O)c2ccsc2c2ccc(C(=O)O)cc21,5

# Same assay, conditions: 20 uM; Table 12; read-out: PARP % inhib @ 20 uM
row,inhibition at 20 µM [%],SMILES
1,97,O=C(O)CNC(=O)c1ccc2c(c1)[nH]c(=O)c1ccsc12
2,82,CC(C)(C)OC(=O)CCNC(=O)c1ccc2c(c1)[nH]c(=O)c1ccsc12
3,90,O=C(NC1CC1)c1ccc2c(c1)[nH]c(=O)c1ccsc12
4,93,COC(=O)CNC(=O)c1ccc2c(c1)[nH]c(=O)c1ccsc12
5,22,O=C(Nc1ccccc1)c1ccc2c(c1)[nH]c(=O)c1ccsc12
6,32,COc1ccc(NC(=O)c2ccc3c(c2)[nH]c(=O)c2ccsc23)c(OC)c1
7,83,O=C(NCCc1ccccn1)c1ccc2c(c1)[nH]c(=O)c1ccsc12
8,0,O=c1[nH]c2ccccc2c2sccc12
9,94,CC(=O)N1CCN(C(=O)c2ccc3c(c2)[nH]c(=O)c2ccsc23)CC1
10,95,O=C(c1ccc2c(c1)[nH]c(=O)c1ccsc12)N1CCOCC1
11,24,COc1ccccc1NC(=O)c1ccc2c(c1)[nH]c(=O)c1ccsc12
12,97,O=C(NCCc1cnc[nH]1)c1ccc2c(c1)[nH]c(=O)c1ccsc12
13,52,O=C(Nc1nccs1)c1ccc2c(c1)[nH]c(=O)c1ccsc12
14,96,O=C(NCCN1CCOCC1)c1ccc2c(c1)[nH]c(=O)c1ccsc12
15,84,COC(=O)c1ccc2c(c1)[nH]c(=O)c1ccsc12

# Same assay, conditions: Table 12
row,IC50 [µM],SMILES
1,1,O=C(NCc1ccccn1)c1ccc2c(c1)[nH]c(=O)c1ccsc12
2,0.5,O=C(NC1CC1)c1ccc2c(c1)[nH]c(=O)c1ccsc12
3,0.5,Cc1cc(CNC(=O)c2ccc3c(c2)[nH]c(=O)c2ccsc23)no1
4,0.03,O=C(c1ccc2c(c1)[nH]c(=O)c1ccsc12)N1CCNCC1
5,1,O=C(NCCc1ccccn1)c1ccc2c(c1)[nH]c(=O)c1ccsc12
6,0.3,CC(=O)N1CCN(C(=O)c2ccc3c(c2)[nH]c(=O)c2ccsc23)CC1
7,0.4,O=C(c1ccc2c(c1)[nH]c(=O)c1ccsc12)N1CCOCC1
8,0.2,O=C(NCCc1cnc[nH]1)c1ccc2c(c1)[nH]c(=O)c1ccsc12
9,0.3,CC(C)(C)OC(=O)N1CCN(C(=O)c2ccc3c(c2)[nH]c(=O)c2ccsc23)CC1
10,0.5,O=C(NCCN1CCOCC1)c1ccc2c(c1)[nH]c(=O)c1ccsc12
11,0.5,N#Cc1ccc2c(c1)[nH]c(=O)c1ccsc12
12,0.02,NC1CCN(C(=O)c2ccc3c(c2)[nH]c(=O)c2ccsc23)CC1
13,0.4,O=c1[nH]c2cc(CO)ccc2c2sccc12

# Same assay, conditions: at 1 μM; Table 10; read-out: PARP Inhibition %
row,SMILES,inhibition at 1 µM [%]
1,CN(C)CCNc1nc2cc(C(=O)O)ccc2c2ccccc12,15

# System: HCT-116 human colorectal carcinoma cells
# Assay: Cell proliferation assay, Alamar Blue, HCT-116;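 further: cells exposed to compound for about 4 days, then Alamar Blue added and fluorescence read after about 4 h, medium-only wells as control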
# Type: cell-based
# Conditions: HCT-116, Table 16, first HCT-116 column
row,IC50 [µM],SMILES
1,> 10,O=C(O)c1ccc2c(c1)nc(Nc1ccc(N3CCOCC3)cc1)c1ccsc12
2,> 10,COc1ccc(Nc2nc3cc(C(=O)O)ccc3c3sccc23)cc1Cl
3,> 10,O=C(O)c1ccc2c(c1)nc(NCCc1ccccc1)c1ccsc12
4,> 10,CN(C)CCNc1nc2cc(-c3nnn[nH]3)ccc2c2sccc12
5,> 10,Clc1ccc(Nc2nc3cc(-c4nnn[nH]4)ccc3c3sccc23)cc1
6,> 10,N#Cc1ccc2c(c1)nc(Nc1ccccc1)c1ccsc12
7,> 10,O=C(O)c1ccc2c(c1)nc(NCCCO)c1ccsc12
8,> 10,O=C(O)c1ccc2c(c1)nc(N1CCOCC1)c1ccsc12
9,> 10,O=C(O)c1ccc2c(c1)nc(NCCN1CCOCC1)c1ccsc12
10,> 10,O=C(O)c1ccc2c(c1)nc(Nc1ccc(F)cc1)c1ccsc12
11,> 10,O=C(O)c1ccc2c(c1)nc(Nc1ccc(Cl)cc1)c1ccsc12
12,> 10,CN(c1ccccc1)c1nc2cc(C(=O)O)ccc2c2sccc12
13,> 10,O=C(O)c1ccc2c(c1)nc(NCCN1CCCC1)c1ccsc12
14,9,NC(=O)c1ccc2c(c1)nc(Nc1ccccc1)c1ccsc12
15,> 10,CCN(c1ccccc1)c1nc2cc(C(=O)O)ccc2c2sccc12
16,> 10,Fc1ccc(Nc2nc3cc(-c4nnn[nH]4)ccc3c3sccc23)cc1Cl
17,> 10,O=C(O)c1ccc2c(c1)nc(NCCO)c1ccsc12
18,> 10,COC(=O)c1ccc2c(c1)nc(Nc1ccccc1)c1ccsc12
19,> 10,c1ccc(Nc2nc3ccccc3c3sccc23)cc1
20,> 10,O=C(O)c1ccc2c(c1)nc(Nc1nc3ccccc3[nH]1)c1ccsc12
21,> 10,Cc1ccccc1Nc1nc2cc(C(=O)O)ccc2c2sccc12
22,> 10,Clc1nc2ccccc2c2sccc12

row,IC50 [µM],SMILES
1,> 10,COc1ccc(OC)c(Nc2nc3cc(C(=O)O)ccc3c3sccc23)c1
2,> 10,O=C(O)CNc1nc2cc(C(=O)O)ccc2c2sccc12
3,> 10,O=C(O)c1ccc2c(c1)nc(OCCCO)c1ccsc12
4,> 10,COc1cccc(Nc2nc3cc(-c4nnn[nH]4)ccc3c3sccc23)c1
5,> 10,O=C(O)c1ccc2c(c1)nc(NCc1cccnc1)c1ccsc12
6,> 10,O=C(O)c1ccc2c(c1)nc(NC1CC1)c1ccsc12
7,> 10,CS(=O)(=O)NC(=O)c1ccc2c(c1)nc(Nc1ccccc1)c1ccsc12
8,> 10,O=C(O)c1ccc2c(c1)nc(Nc1ccc(F)cc1F)c1ccsc12
9,> 10,COc1ccccc1Nc1nc2cc(C(=O)O)ccc2c2sccc12
10,> 10,O=C(O)c1ccc2c(c1)nc(NCc1ccccn1)c1ccsc12
11,> 10,COc1ccc(Nc2nc3cc(-c4nnn[nH]4)ccc3c3sccc23)cc1Cl
12,> 10,O=C(O)c1ccc2c(c1)nc(NCc1ccncc1)c1ccsc12
13,> 10,N#Cc1ccc2c(c1)nc(Cl)c1ccsc12
14,> 10,O=C(O)c1ccc2c(c1)nc(N1CCc3ccccc31)c1ccsc12
15,> 10,O=C(NCCCO)c1ccc2c(c1)nc(NCCCO)c1ccsc12
16,> 10,O=C(O)c1ccc2c(c1)nc(Nc1ccccc1O)c1ccsc12
17,2,CN(C)CCNc1nc2ccccc2c2sccc12
18,> 10,O=c1[nH]c(-c2ccc3c(c2)nc(Nc2ccccc2)c2ccsc23)no1
19,> 10,Fc1ccc(Nc2nc3cc(-c4nnn[nH]4)ccc3c3sccc23)cc1
20,> 10,O=C(O)c1ccc2c(c1)nc(Nc1cccc(O)c1)c1ccsc12
21,> 10,COc1ccc(Nc2nc3cc(C(=O)O)ccc3c3sccc23)c(OC)c1
22,> 10,O=C(O)c1ccc2c(c1)nc(N1CCCC1)c1ccsc12

row,SMILES,IC50 [µM]
1,COC(=O)c1ccc2c(c1)nc(Cl)c1ccsc12 [drawing 842],> 10

# Same assay, conditions: HCT-116, Table 16, second HCT-116 column
row,IC50 [µM],SMILES
1,> 10,O=C(O)c1ccc2c(c1)nc(Nc1cccc(Oc3ccccc3)c1)c1ccsc12
2,> 10,O=C(O)c1ccc2c(c1)nc(Nc1cccc(C(=O)N3CCOCC3)c1)c1ccsc12
3,> 10,COc1cc(Nc2nc3cc(-c4nnn[nH]4)ccc3c3sccc23)ccc1F
4,> 10,O=C(O)c1ccc2c(c1)nc(Nc1cccc(C(=O)NC3CC3)c1)c1ccsc12
5,> 10,CN(C)CCNC(=O)c1cccc(Nc2nc3cc(C(=O)O)ccc3c3sccc23)c1
6,> 10,C#Cc1cccc(Nc2nc3cc(C(=O)O)ccc3c3sccc23)c1 [drawing 967]
7,> 10,CCOc1cccc(Nc2nc3cc(-c4nnn[nH]4)ccc3c3sccc23)c1
8,> 10,COC(=O)c1ccc2c(c1)nc(Nc1ccccc1)c1ncsc12
9,> 10,CC(C)Oc1cccc(Nc2nc3cc(-c4nnn[nH]4)ccc3c3sccc23)c1
10,> 10,c1cc2c(Nc3ccc4c(c3)OCCO4)nc3cc(-c4nnn[nH]4)ccc3c2s1
11,> 10,O=C(O)CNC(=O)c1cccc(Nc2nc3cc(C(=O)O)ccc3c3sccc23)c1
12,> 10,CCc1cccc(Nc2nc3cc(-c4nnn[nH]4)ccc3c3sccc23)c1
13,> 10,CCCNC(=O)c1cccc(Nc2nc3cc(C(=O)O)ccc3c3sccc23)c1

# Same assay, conditions: HCT-116, Table 18
row,IC50 [µM],SMILES
1,> 10,CNc1ncc2c(n1)c(NC1CC1)nc1cc(C(=O)O)ccc12
2,> 10,CN(C)CCNc1nc2cc(-c3nnn[nH]3)ccc2c2cnccc12
3,1.6,CN(C)CCNc1nc2cc(C#N)ccc2c2cnccc12

# — patent US9062043B2, “Fused tricyclic compounds as serine-threonine protein kinase and PARP modulators” (SENHWA BIOSCIENCES, INC., priority 2006, dated 2015)
